# Read-outs that look alike come from different tables or passages of the source.
# Tests used:
# [1] = test system: subcutaneous fat-derived stein cells; settings: for adipogenesis (fat staining with Nile red): FIG. 5
# Method: (§1) Onto a 96-well plate (manufactured by IWAKI), 2 μL of FBS-free DMEM containing 1.2% by weight (final concentration) of the defibered collagen component, 6 mg/mL (final concentration) fibrinogen, 3 U/mL (final concentration) thrombin, and 5×10^6 cells/mL of subcutaneous fat-derived stein cells was seeded and incubated for 15 minutes, 200 μL of DMEM culture medium was then added, and culture was performed for 48 hours.
# [2] = test system: subcutaneous fat-derived stein cells; settings: day 7 of differentiation
# Method: as §1
# The three-dimensional tissue constructs obtained were each subjected to fat staining with Nile red, and Hoechst staining for staining nuclei. In the same manner as in Production Example 1, fluorescence intensity for fat staining (Nile red) relative to fluorescence intensity for nucleic staining (Hoechst) was calculated, and increase rates of fluorescence intensity with reference to that of the three-dimensional tissue constructs cultured in DMEM culture medium containing no ALK5 inhibitor were calculated (three samples were used for each conditions).
structure (smiles),measurement,setting,value
"Cc1cccc(-c2n[nH]cc2-c2ccc3ncccc3n2)n1 [ALK5 inhibitor, 2-[3-(6-methyl-2-pyridinyl)-1H-pyrazol-4-yl]-1,5-naphthyridine]",adipogenesis (fat staining with Nile red),"[1]; ALK5 inhibitor 5 μM with seven fatty acids each in 50 IIM, day 3, day 7 and day 14 of differentiation",had proceeded
same,difference in increase rates of fluorescence intensity between day 7 and day 14 of culture,"[1]; ALK5 inhibitor 5 μM, FIG. 6",No large difference
same,adipogenesis (fat staining with Nile red),"[1]; ALK5 inhibitor 5 μM, day 7 of culture and day 14 of culture (in particular)",had more proceeded
same,increase in fluorescence intensity vs medium containing no ALK5 inhibitor,"[1]; ALK5 inhibitor 5 μM, day 7 of culture and day 14 of culture, FIG. 6",significant
same,increase in fluorescence intensity (Nile red relative to Hoechst),"[2]; 5 μM or more of the ALK5 inhibitor in DMEM with seven fatty acids each 50 μM, vs no ALK5 inhibitor, FIG. 4",≥ 3 fold
same,adipogenesis (fat staining with Nile red),"[2]; ALK5 inhibitor 1, 5 or 10 μM in DMEM with seven fatty acids each 50 μM, vs medium containing no ALK5 inhibitor, FIG. 3",had proceeded more
same,differentiation of fat-derived stein cells into mature adipocytes,[2]; addition of the ALK5 inhibitor to DMEM with seven fatty acids each 50 μM,promoted

# Source: US20240117313A1, “METHOD FOR PRODUCING THREE-DIMENSIONAL TISSUE BODY AND METHOD FOR PROMOTING DIFFERENTIATION OF ADIPOSE-DERIVED STEM CELLS” (TOPPAN INC., priority 2021, published 2024)
